The results in this text go back to patent US7727960B2, “C5a receptor antagonists” (Jerini AG, priority 2003, dated 2010).

Starred links: 1 amine or outer side, 2 acyl side, 3 side chain; linkers in the order of their positions; H or OH if unused. Positions of bridges follow the written chain, without caps; N, C: chain ends. Non-standard residues stand in square brackets, D forms with d. Residues, ends and D or L forms follow the SMILES beside them. *: point of attachment. X2 = COC1O[C@H](C(=O)[*:2])[C@@H](O)[C@H](O)[C@H]1N[*:1]; Dip = N[C@H](C(=O)O)C(c1ccccc1)c1ccccc1; Bta = N[C@@H](Cc1csc2ccccc12)C(=O)O; Hydrocinnamoyl = O=C(CCc1ccccc1)*; 2Thi = N[C@@H](Cc1cccs1)C(=O)O; dCha = N[C@H](CC1CCCCC1)C(=O)O; AllylGly = C=CC[C@H](N)C(=O)O; Pip = O=C(O)[C@@H]1CCCCN1; Nle = CCCC[C@H](N)C(=O)O; Orn = NCCC[C@H](N)C(=O)O; Aze = O=C(O)[C@@H]1CCN1

For data set [1], the target named is T1, human C5aR (CD88) (Homo sapiens, UniProt P21730).
T1 construct: expressed in transfected cells; host or cells: rat basophilic leukemia cells (RBL)
T1 sequence (P21730 1-350): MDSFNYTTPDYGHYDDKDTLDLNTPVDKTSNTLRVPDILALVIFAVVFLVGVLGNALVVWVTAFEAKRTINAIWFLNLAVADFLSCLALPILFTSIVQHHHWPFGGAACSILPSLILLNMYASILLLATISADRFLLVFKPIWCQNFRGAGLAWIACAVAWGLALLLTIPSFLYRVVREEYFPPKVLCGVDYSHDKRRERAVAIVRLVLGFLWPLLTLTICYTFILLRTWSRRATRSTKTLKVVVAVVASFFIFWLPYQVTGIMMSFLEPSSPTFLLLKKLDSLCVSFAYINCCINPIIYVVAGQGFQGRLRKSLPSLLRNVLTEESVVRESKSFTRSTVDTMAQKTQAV
In words: Determination of EC50 values in an enzyme release assay (agonistic activity, no C5a added). It is filed as cell-based. Particulars: for agonistic activity (in words): cellular assay, up to a concentration of at least 1430 nM. On the procedure:
The determination of the EC50 value was performed in a way similar to the procedure described in example 11, with the only exception that 30 μl of the compound to be tested were mixed with 75 μl of the cell suspension described in example 11. There was no preincubation or addition of C5a for stimulation of the enzyme release.

The target in data set [2] is T1, human C5aR (CD88). Briefly: Determination of the IC50 value in an enzyme release assay (functional assay, antagonistic activity). Format: cell-based. Conditions: for IC50-value compared to compound 40 (in words): arginine replaced by hydrophobic substitutions; for inhibitory activity (in words): noteworthy = IC50 of less than 200 nM in the functional assay.
Data set [3] in a line: Solubility determination for selected C5aR-antagonists. It is filed as physicochemical. Conditions: for Solubility in 20 mM HEPES pH 7.4: 20 mM HEPES pH 7.4, 24 h at RT; for solubility: aqueous HEPES buffer (pH 7.4). How it is done:
Solubility of compounds was determined by the following procedure: 20 μl of a 10 mM stock solution (in DMSO) of the compound were diluted in 980 μl of the solvent to be tested. After incubation for 24 h at RT under shaking the samples are centrifuged at 11.000 rpm in an Eppendorf centrifuge. The supematant is determined by photometry. […] Therefor the compound was suspended at 10 mg/ml in the solvent systems of choice. The undissolved part was removed by centrifugation after 24 h. The UV-absorption of the supernatant was measured and compared to a respective reference value 60% MeOH).

`CC(=O)N[C@@H](Cc1ccccc1)C(=O)N[C@H]1CCCNC(=O)[C@H](Cc2ccccc2)NC(=O)[C@H](Cc2c[nH]c3ccccc23)NC(=O)[C@@H](CC2CCCCC2)NC(=O)[C@@H]2CCCN2C1=O` [Compound 1, Ac-Phe-[Orn-Pro-cha-Trp-Phe]] (Ac-F[Orn]P[dCha]WF; lactam 2-C): at human C5aR (CD88) [1], the “agonistic activity (in words)” value is recorded as “pure antagonists”. At human C5aR (CD88) [2], the “IC50-value compared to compound 40 (in words)” value is listed as “without a significant increase of the IC50-value” and the “inhibitory activity (in words)” value is “noteworthy inhibitory activity”. Moreover, in data set [3], the “Solubility in 20 mM HEPES pH 7.4” value was 8 % of 200 μM and the solubility is on record as 8%.

Turning to `CCCC[C@@H]1NC(=O)[C@H](Cc2c[nH]c3ccccc23)NC(=O)[C@@H](CC2CCCCC2)NC(=O)[C@@H]2CCCN2C(=O)[C@@H](NC(=O)[C@H](Cc2ccccc2)NC(=O)[C@H]2OC(OC)[C@H](NC(C)=O)[C@@H](O)[C@@H]2O)CCCNC1=O` (stereo partly drawn) [Compound 4, X-Phe-[Orn-Pro-cha-Trp-Nle]; X = 2-acetamido-1-methyl-glucuronyl] (Ac-[X2]F[Orn]P[dCha]W[Nle]; lactam 3-C), in data set [3], the “Solubility in 20 mM HEPES pH 7.4” value is on record as 84 % of 200 μM and the solubility is 84%.

For `CCCC[C@@H]1NC(=O)[C@H](Cc2c[nH]c3ccccc23)NC(=O)[C@@H](CC2CCCCC2)NC(=O)[C@@H]2CCCN2C(=O)[C@@H](NC(=O)[C@H](Cc2ccccc2)NC(C)=O)CCCNC1=O` [Compound 28, Ac-Phe-[Orn-Pro-cha-Trp-Nle]] (Ac-F[Orn]P[dCha]W[Nle]; lactam 2-C), at human C5aR (CD88) [2], the “IC50-value compared to compound 40 (in words)” value is recorded as “without a significant increase of the IC50-value” and the “inhibitory activity (in words)” value is reported as “noteworthy inhibitory activity”. Moreover, in data set [3], the “Solubility in 20 mM HEPES pH 7.4” value was 22 % of 200 μM and the solubility worked out at 22%.

As for `C=CC[C@@H]1NC(=O)[C@H](Cc2c[nH]c3ccccc23)NC(=O)[C@@H](CC2CCCCC2)NC(=O)[C@@H]2CCCN2C(=O)[C@@H](NC(=O)[C@H](Cc2ccccc2)NC(C)=O)CCCNC1=O` [Compound 33, Ac-Phe-[Orn-Pro-cha-Trp-Eaf]] (Ac-F[Orn]P[dCha]W[AllylGly]; lactam 2-C), the “agonistic activity (in words)” value at human C5aR (CD88) [1] is “pure antagonists”. At human C5aR (CD88) [2], the “IC50-value compared to compound 40 (in words)” value is given as “without a significant increase of the IC50-value” and the “inhibitory activity (in words)” value is “noteworthy inhibitory activity”.

On to `CC(=O)N[C@@H](Cc1ccccc1)C(=O)N[C@H]1CCCNC(=O)[C@H](CCCNC(=N)N)NC(=O)[C@H](Cc2c[nH]c3ccccc23)NC(=O)[C@@H](CC2CCCCC2)NC(=O)[C@@H]2CCCN2C1=O` [Compound 40, Ac-Phe-[Orn-Pro-cha-Trp-Arg], reference compound], for which, in data set [3], the “Solubility in 20 mM HEPES pH 7.4” value is on record as 94 % of 200 μM and the solubility came to 94%.

With `CCCC[C@@H]1NC(=O)[C@H](Cc2c[nH]c3ccccc23)NC(=O)[C@@H](CC2CCCCC2)NC(=O)[C@@H]2CCCN2C(=O)[C@@H](NC(=O)CCc2ccccc2)CCCNC1=O` [Compound 41, Ph—CH2—CH2—CO-[Orn-Pro-cha-Trp-Nle]] (Hydrocinnamoyl-[Orn]P[dCha]W[Nle]; lactam 1-C), the “agonistic activity (in words)” value at human C5aR (CD88) [1] is “pure antagonists”. Moreover, the “inhibitory activity (in words)” value at human C5aR (CD88) [2] is “noteworthy inhibitory activity”.

As for `CC(=O)N[C@@H](Cc1ccccc1)C(=O)N[C@@H](CCCN)C(=O)N1CCC[C@H]1C(=O)N[C@H](CC1CCCCC1)C(=O)N[C@@H](Cc1c[nH]c2ccccc12)C(=O)N[C@@H](Cc1ccccc1)C(N)=O` [Compound 51, Ac-Phe-Orn-Pro-cha-Trp-Phe-NH2] (Ac-F[Orn]P[dCha]WF-NH2), at human C5aR (CD88) [1], the “agonistic activity (in words)” value is recorded as “pure antagonists”.

Turning to `CC(=O)N[C@@H](Cc1ccccc1)C(=O)N[C@@H](CCCN)C(=O)N1CCCC[C@H]1C(=O)N[C@H](CC1CCCCC1)C(=O)N[C@@H](Cc1c[nH]c2ccccc12)C(=O)N[C@@H](Cc1ccccc1)C(N)=O` [Compound 55, Ac-Phe-Orn-Pip-cha-Trp-Phe-NH2] (Ac-F[Orn][Pip][dCha]WF-NH2), the “agonistic activity (in words)” value on human C5aR (CD88) [1] is reported as “pure antagonists”.

Take `CC(=O)N[C@@H](Cc1ccccc1)C(=O)N[C@@H](CCCN)C(=O)N1CCC[C@H]1C(=O)N[C@H](CC1CCCCC1)C(=O)N[C@@H](Cc1csc2ccccc12)C(=O)N[C@@H](Cc1ccccc1)C(N)=O` [Compound 62, Ac-Phe-Orn-Pro-cha-Bta-Phe-NH2] (Ac-F[Orn]P[dCha][Bta]F-NH2): the “agonistic activity (in words)” value at human C5aR (CD88) [1] was “pure antagonists”.

In the case of `CC(=O)N[C@@H](Cc1cccs1)C(=O)N[C@@H](CCCN)C(=O)N1CCCC[C@H]1C(=O)N[C@H](CC1CCCCC1)C(=O)N[C@@H](Cc1csc2ccccc12)C(=O)N[C@@H](Cc1ccccc1)C(N)=O` [Compound 67, Ac-Thi-Orn-Pip-cha-Bta-Phe-NH2] (Ac-[2Thi][Orn][Pip][dCha][Bta]F-NH2), the “agonistic activity (in words)” value on human C5aR (CD88) [1] is reported as “pure antagonists”.

Regarding `CC(=O)N[C@H](C(=O)N[C@@H](CCCN)C(=O)N1CCC[C@H]1C(=O)N[C@H](CC1CCCCC1)C(=O)N[C@@H](Cc1c[nH]c2ccccc12)C(=O)N[C@@H](Cc1ccccc1)C(N)=O)C(c1ccccc1)c1ccccc1` [Compound 71, Ac-Ebw-Orn-Pro-cha-Trp-Phe-NH2] (Ac-[Dip][Orn]P[dCha]WF-NH2), on human C5aR (CD88) [1], the “agonistic activity (in words)” value is on record as “pure antagonists”.

For `CC(=O)N[C@@H](Cc1ccccc1)C(=O)N[C@@H](CCCN)C(=O)N1CC[C@H]1C(=O)N[C@H](CC1CCCCC1)C(=O)N[C@@H](Cc1c[nH]c2ccccc12)C(=O)N[C@@H](Cc1ccccc1)C(N)=O` [Compound 83, Ac-Phe-Orn-Aze-cha-Trp-Phe-NH2] (Ac-F[Orn][Aze][dCha]WF-NH2), the “agonistic activity (in words)” value at human C5aR (CD88) [1] is listed as “pure antagonists”.

In the case of `CC(=O)N[C@@H](Cc1ccccc1)C(=O)N[C@@H](Cc1c[nH]c2ccccc12)C(=O)N1CCC[C@H]1C(=O)N[C@H](CC1CCCCC1)C(=O)N[C@@H](Cc1c[nH]c2ccccc12)C(=O)N[C@@H](Cc1ccccc1)C(N)=O` [Compound 84, Ac-Phe-Trp-Pro-cha-Trp-Phe-NH2] (Ac-FWP[dCha]WF-NH2), on human C5aR (CD88) [1], the “agonistic activity (in words)” value is “pure antagonists”.

Turning to `CC(=O)N[C@@H](Cc1ccccc1)C(=O)N[C@@H](CCCNC(=N)N)C(=O)N1CCC[C@H]1C(=O)N[C@H](CC1CCCCC1)C(=O)N[C@@H](Cc1c[nH]c2ccccc12)C(=O)N[C@@H](Cc1ccccc1)C(N)=O` [Compound 88, Ac-Phe-Arg-Pro-cha-Trp-Phe-NH2] (Ac-FRP[dCha]WF-NH2), the “agonistic activity (in words)” value at human C5aR (CD88) [1] is “pure antagonists”.

On to Ac-Phe-Orn-cha-cha-Bta-Phe-NH2, for which the “agonistic activity (in words)” value at human C5aR (CD88) [1] was “pure antagonists”.

In the case of H-Phe-[Orn-Pro-cha-Trp-Phe], the “agonistic activity (in words)” value with human C5aR (CD88) [1] is on record as “pure antagonists”.

B1: hrC5a: hrC5a (Sigma) used for stimulation of the enzyme release; agonist control in Table 5 (protein)
chain: TLQKKIEEIAAKYKHSVVKKCCYDGACVNNDETCEQRAARISLGPRCIKAFTECCVVASQLRANISHKDMQLGR
Turning to B1, in the data set with human C5aR (CD88) [1] (agonistic activity, no preincubation or addition of C5a), the EC50 – broadly, the concentration that produces a half-maximal response – is 2.4 nM.
